SMILES strings stand for the structures. Where two headings read alike, the source gives them in different places.

One test deals with T1, CDK9/CycT1 (Homo sapiens, UniProt P50750).
T1 construct: Recombinant full-length His-tagged human CDK9 and CycT1; His; purchased Invitrogen PV4131; host or cells: insect cells
The test can be described thus: CDK9/CycT1 high ATP kinase assay (Method 1b, TR-FRET). The format is biochemical. As to conditions: 2 mM ATP; for Selectivity high ATP CDK9 over high ATP CDK2: IC50 (high ATP CDK2)/IC50 (high ATP CDK9): Methods 1b. and 2b. The method, then: 1b. CDK9/CycT1 High ATP Kinase Assay
CDK9/CycT1-Inhibitory Activity of Compounds of the Present Invention at a High ATP Concentration after Preincubation of Enzyme and Test Compounds was Quantified Employing the CDK9/CycT1 TR-FRET Assay as Described in the Following Paragraphs.
Recombinant full-length His-tagged human CDK9 and CycT1, expressed in insect cells and purified by Ni-NTA affinity chromatography, were purchase from Invitrogen (Cat. No PV4131). As substrate for the kinase reaction biotinylated peptide biotin-Ttds-YISPLKSPYKISEG (C-terminus in amid form) was used which can be purchased e.g. form the company JERINI peptide technologies (Berlin, Germany). For the assay 50 nl of a 100 fold concentrated solution of the test compound in DMSO was pipetted into a black low volume 384 well microtiter plate (Greiner Bio-One, Frickenhausen, Germany), 2 μl of a solution of CDK9/CycT1 in aqueous assay buffer [50 mM Tris/HCl pH 8.0, 10 mM MgCl2, 1.0 mM dithiothreitol, 0.1 mM sodium ortho-vanadate, 0.01% (v/v) Nonidet-P40 (Sigma)] were added and the mixture was incubated for 15 min at 22° C. to allow pre-binding of the test compounds to the enzyme before the start of the kinase reaction. Then the kinase reaction was started by the addition of 3 μl of a solution of adenosine-tri-phosphate (ATP, 3.3 mM=>final conc. in the 5 μl assay volume is 2 mM) and substrate (1.67 μM=>final conc. in the 5 μl assay volume is 1 μM) in assay buffer and the resulting mixture was incubated for a reaction time of 25 min at 22° C. The concentration of CDK9/CycT1 was adjusted depending of the activity of the enzyme lot and was chosen appropriate to have the assay in the linear range, typical concentrations were in the range of 0.5 μg/mL. The reaction was stopped by the addition of 5 μl of a solution of TR-FRET detection reagents (0.2 μM streptavidine-XL665 [Cisbio Bioassays, Codolet, France] and 1 nM anti-RB(pSer807/pSer811)-antibody from BD Pharmingen [#558389] and 1.2 nM LANCE EU-W1024 labeled anti-mouse IgG antibody [Perkin-Elmer, product no. AD0077]) in an aqueous EDTA-solution (100 mM EDTA, 0.2% (w/v) bovine serum albumin in 100 mM HEPES/NaOH pH 7.0).
The resulting mixture was incubated 1 h at 22° C. to allow the formation of complex between the phosphorylated biotinylated peptide and the detection reagents. Subsequently the amount of phosphorylated substrate was evaluated by measurement of the resonance energy transfer from the Eu-chelate to the streptavidine-XL. Therefore, the fluorescence emissions at 620 nm and 665 nm after excitation at 350 nm was measured in a HTRF reader, e.g. a Rubystar (BMG Labtechnologies, Offenburg, Germany) or a Viewlux (Perkin-Elmer). The ratio of the emissions at 665 nm and at […] was taken as the measure for the amount of phosphorylated substrate. The data were normalised (enzyme reaction without inhibitor=0% inhibition, all other assay components but no enzyme=100% inhibition).

The subject of the next test is NCI-H460 cells. The test can be described thus: Proliferation assay NCI-H460 (Method 3). The format is cell-based, human. As to conditions: NCI-H460, 4 days, crystal violet, read-out: Inhibition of NCI-H460 cell proliferation IC50. The method, then:
(§1) Cultivated tumour cells (HeLa, human cervical tumour cells, ATCC CCL-2; NCI-H460, human non-small cell lung carcinoma cells, ATCC HTB-177; A2780, human ovarian carcinoma cells, ECACC #93112519; DU 145, hormone-independent human prostate carcinoma cells, ATCC HTB-81; HeLa-MaTu-ADR, multidrug-resistant human cervical carcinoma cells, EPO-GmbH Berlin; Caco-2, human colorectal carcinoma cells, ATCC HTB-37; B16F10, mouse melanoma cells, ATCC CRL-6475) were plated at a density of 5,000 cells/well (DU145, HeLa-MaTu-ADR), 3,000 cells/well (NCI-H460, HeLa), 2,500 cells/well (A2780), 1,500 cells/well (Caco-2), or 1,000 cells/well (B16F10) in a 96-well multititer plate in 200 μL of their respective growth medium supplemented 10% fetal calf serum. After 24 hours, the cells of one plate (zero-point plate) were stained with crystal violet (see below), while the medium of the other plates was replaced by fresh culture medium (200 μl), to which the test substances were added in various concentrations (0 μM, as well as in the range of 0.001-10 μM; the final concentration of the solvent dimethyl sulfoxide was 0.5%). The cells were incubated for 4 days in the presence of test substances. Cell proliferation was determined by staining the cells with crystal violet: the cells were fixed by adding 20 μl/measuring point of an 11% glutaric aldehyde solution for 15 minutes at room temperature. After three washing cycles of the fixed cells with water, the plates were dried at room temperature. The cells were stained by adding 100 μl/measuring point of a 0.1% crystal violet solution (pH 3.0). After three washing cycles of the stained cells with water, the plates were dried at room temperature. The dye was dissolved by adding 100 μl/measuring point of a 10% acetic acid solution. The extinction was determined by photometry at a wavelength of 595 nm. The change of cell number, in percent, was calculated by normalization of the measured values to the extinction values of the zero-point plate (=0%) and the extinction of the untreated (0 μm) cells (=100%). The IC50 values (inhibitory concentration at 50% of maximal effect) were determined by means of a 4 parameter fit.

The next test concerns Caco-2 cells. Kind of test: Proliferation assay Caco-2 (Method 3). The format is cell-based, human. As to conditions: Caco-2, 4 days, crystal violet, read-out: Inhibition of Caco-2 cell proliferation IC50. The method, then: as §1
In another test the test system is A2780 cells. Kind of test: Proliferation assay A2780 (Method 3). The format is cell-based, human. As to conditions: A2780, 4 days, crystal violet, read-out: Inhibition of A2780 cell proliferation IC50. Here is the method:
as §1

T1 sequence (P50750 whole entry): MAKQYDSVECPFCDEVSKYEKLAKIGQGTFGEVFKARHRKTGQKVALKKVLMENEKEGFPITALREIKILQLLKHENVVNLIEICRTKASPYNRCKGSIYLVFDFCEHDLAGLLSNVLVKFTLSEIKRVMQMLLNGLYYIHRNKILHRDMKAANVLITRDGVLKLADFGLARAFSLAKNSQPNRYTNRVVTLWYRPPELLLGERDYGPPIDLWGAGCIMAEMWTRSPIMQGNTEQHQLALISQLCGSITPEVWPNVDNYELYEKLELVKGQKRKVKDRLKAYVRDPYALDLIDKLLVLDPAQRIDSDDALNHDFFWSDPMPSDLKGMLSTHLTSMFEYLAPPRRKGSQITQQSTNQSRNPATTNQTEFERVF
T1 sequence (O60563 whole entry partner): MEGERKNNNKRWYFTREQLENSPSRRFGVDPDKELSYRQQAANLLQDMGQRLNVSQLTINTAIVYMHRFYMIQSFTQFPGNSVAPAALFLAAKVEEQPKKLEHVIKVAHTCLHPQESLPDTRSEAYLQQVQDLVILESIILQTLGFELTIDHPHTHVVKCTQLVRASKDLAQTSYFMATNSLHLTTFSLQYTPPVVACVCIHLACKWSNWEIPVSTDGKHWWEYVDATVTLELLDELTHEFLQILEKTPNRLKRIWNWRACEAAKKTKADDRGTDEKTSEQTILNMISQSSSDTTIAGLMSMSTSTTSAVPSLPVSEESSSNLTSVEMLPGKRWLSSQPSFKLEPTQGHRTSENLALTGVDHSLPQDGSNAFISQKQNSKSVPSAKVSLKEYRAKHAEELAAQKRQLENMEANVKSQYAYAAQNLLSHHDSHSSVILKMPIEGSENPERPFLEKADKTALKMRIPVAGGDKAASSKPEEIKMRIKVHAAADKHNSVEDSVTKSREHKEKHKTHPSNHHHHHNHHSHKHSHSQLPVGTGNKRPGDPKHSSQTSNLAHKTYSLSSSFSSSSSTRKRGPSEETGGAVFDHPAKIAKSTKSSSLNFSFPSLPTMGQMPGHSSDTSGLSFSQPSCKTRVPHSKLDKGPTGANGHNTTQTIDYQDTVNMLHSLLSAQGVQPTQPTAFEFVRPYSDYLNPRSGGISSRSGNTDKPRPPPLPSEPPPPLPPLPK

For `Cc1cc(CS(C)(=O)=NC#N)cc(Nc2ncc(F)c(-c3ccc(F)c4ccoc34)n2)c1` (single isomer, unassigned) [Example 15, [(3-{[5-Fluoro-4-(4-fluoro-1-benzofuran-7-yl)pyrimidin-2-yl]amino}-5-methylbenzyl)-(methyl)oxido-λ^6-sulfanylidene]cyanamide], the IC50 was 1.6 nM against CDK9/CycT1, 121 nM in the test on NCI-H460 cells, 68 nM in the test with Caco-2 cells and 63 nM with A2780 cells. In addition, the “Selectivity high ATP CDK9 over high ATP CDK2: IC50 (high ATP CDK2)/IC50 (high ATP CDK9)” value (“Selectivity high ATP CDK9” for short) at CDK9/CycT1 is 522.
Take `CS(=O)(Cc1cc(F)cc(Nc2ncc(F)c(-c3ccc(F)c4ccoc34)n2)c1)=NC#N` (single isomer, unassigned) [Example 8, [(3-Fluoro-5-{[5-fluoro-4-(4-fluoro-1-benzofuran-7-yl)pyrimidin-2-yl]amino}benzyl)(methyl)-oxido-λ^6-sulfanylidene]cyanamide]: the IC50 against CDK9/CycT1 is 1 nM; in the test with NCI-H460 cells (Homo sapiens, NCI-H460, 96 h), 119 nM; in the test on Caco-2 cells (Homo sapiens, Caco-2, 96 h), 43 nM; in the test on A2780 cells (Homo sapiens, A2780, 96 h), 37 nM. Also, the “Selectivity high ATP CDK9” value on CDK9/CycT1 is on record as 812.
In the case of `CS(=N)(=O)Cc1cccc(Nc2ncc(F)c(-c3ccc(F)c4ccoc34)n2)c1` (single isomer, unassigned) [Example 5, 5-Fluoro-4-(4-fluoro-1-benzofuran-7-yl)-N-{3-[(S-methylsulfonimidoyl)-methyl]-phenyl}-pyrimidin-2-amine], the IC50 at CDK9/CycT1 stood at 5.6 nM; in the test with NCI-H460 cells (Homo sapiens, NCI-H460, 96 h) it was 343 nM; in the test on Caco-2 cells it was 230 nM; in the test with A2780 cells, 93 nM. Further, the “Selectivity high ATP CDK9” value at CDK9/CycT1 is given as 143.
Consider `CS(=N)(=O)Cc1cc(Nc2ncc(F)c(-c3ccc(F)c4ccoc34)n2)cc(S(F)(F)(F)(F)F)c1` (racemic) [Example 18, (rac)-5-Fluoro-4-(4-fluoro-1-benzofuran-7-yl)-N-{3-[(S-methylsulfonimidoyl)methyl]-5-(pentafluoro-λ^6-sulfanyl)phenyl}pyrimidin-2-amine], for which the IC50 against CDK9/CycT1 worked out at 4.4 nM; in the test on NCI-H460 cells (Homo sapiens, NCI-H460, 96 h), 136 nM; with Caco-2 cells (Homo sapiens, Caco-2, 96 h) it was 152 nM; in the test with A2780 cells (Homo sapiens, A2780, 96 h), 34 nM. Further, the “Selectivity high ATP CDK9” value on CDK9/CycT1 came out at 350.
Consider `CS(=O)(Cc1cc(F)cc(Nc2ncc(F)c(-c3ccc(F)c4ccoc34)n2)c1)=NC#N` (single isomer, unassigned) [Example 9, [(3-Fluoro-5-{[5-fluoro-4-(4-fluoro-1-benzofuran-7-yl)pyrimidin-2-yl]amino}benzyl)(methyl)-oxido-λ^6-sulfanylidene]cyanamide], for which the IC50 against CDK9/CycT1 was determined as 3.4 nM; in the test on NCI-H460 cells, 106 nM; in the test with Caco-2 cells, 54 nM; with A2780 cells, 19 nM. Also, the “Selectivity high ATP CDK9” value at CDK9/CycT1 is recorded as 656.
Regarding `CS(=N)(=O)Cc1cccc(Nc2ncc(F)c(-c3ccc(F)c4ccoc34)n2)c1` (racemic) [Example 4, (rac)-5-Fluoro-4-(4-fluoro-1-benzofuran-7-yl)-N-{3-[(S-methylsulfonimidoyl)-methyl]phenyl}-pyrimidin-2-amine], the IC50 against CDK9/CycT1 worked out at 22 nM; in the test with NCI-H460 cells (Homo sapiens, NCI-H460, 96 h), 181 nM; in the test on Caco-2 cells (Homo sapiens, Caco-2, 96 h), 141 nM; in the test with A2780 cells (Homo sapiens, A2780, 96 h), 53 nM. In addition, on CDK9/CycT1, the “Selectivity high ATP CDK9” value is 23.
With `CS(=O)(Cc1cccc(Nc2ncc(F)c(-c3ccc(F)c4ccoc34)n2)c1)=NC#N` (single isomer, unassigned) [Example 2, [(3-{[5-Fluoro-4-(4-fluoro-1-benzofuran-7-yl)pyrimidin-2-yl]amino}benzyl)(methyl)oxido-λ^6-sulfanylidene]cyanamide], the IC50 against CDK9/CycT1 is 1.1 nM; in the test on NCI-H460 cells, 117 nM; with Caco-2 cells it was 87 nM; in the test with A2780 cells it was 55 nM. Further, the “Selectivity high ATP CDK9” value on CDK9/CycT1 was 321.
Consider `CS(=O)(Cc1cc(F)cc(Nc2ncc(F)c(-c3ccc(F)c4ccoc34)n2)c1)=NC#N` (racemic) [Example 7, (rac)-[(3-Fluoro-5-{[5-fluoro-4-(4-fluoro-1-benzofuran-7-yl)pyrimidin-2-yl]amino}benzyl)(methyl)-oxido-λ^6-sulfanylidene]cyanamide], for which the IC50 against CDK9/CycT1 was 1.9 nM; with NCI-H460 cells (Homo sapiens, NCI-H460, 96 h), 104 nM; in the test on Caco-2 cells (Homo sapiens, Caco-2, 96 h), 75 nM; in the test with A2780 cells (Homo sapiens, A2780, 96 h) it was 23 nM. Further, the “Selectivity high ATP CDK9” value at CDK9/CycT1 was determined as 343.
Turning to `CS(=O)(Cc1cccc(Nc2ncc(F)c(-c3ccc(F)c4ccoc34)n2)c1)=NC#N` (racemic) [Example 1, (rac)-[(3-{[5-Fluoro-4-(4-fluoro-1-benzofuran-7-yl)pyrimidin-2-yl]amino}benzyl)(methyl)oxido-λ^6-sulfanylidene]cyanamide], the IC50 was determined as 0.9 nM on CDK9/CycT1; 189 nM in the test on NCI-H460 cells (Homo sapiens, NCI-H460, 96 h); 110 nM with Caco-2 cells (Homo sapiens, Caco-2, 96 h); 46 nM in the test on A2780 cells (Homo sapiens, A2780, 96 h). Moreover, the “Selectivity high ATP CDK9” value at CDK9/CycT1 is listed as 622.
For `CS(=N)(=O)Cc1cc(F)cc(Nc2ncc(F)c(-c3ccc(F)c4ccoc34)n2)c1` (racemic) [Example 10, (rac)-5-Fluoro-4-(4-fluoro-1-benzofuran-7-yl)-N-{3-fluoro-5-[(S-methylsulfonimidoyl)-methyl]-phenyl}-pyrimidin-2-amine], the IC50 on CDK9/CycT1 came to 3.2 nM; in the test with NCI-H460 cells (Homo sapiens, NCI-H460, 96 h), 112 nM; in the test on Caco-2 cells (Homo sapiens, Caco-2, 96 h) it was 104 nM; in the test with A2780 cells (Homo sapiens, A2780, 96 h), 37 nM. Moreover, the “Selectivity high ATP CDK9” value at CDK9/CycT1 worked out at 563.

The values are drawn from patent US9884849B2, “Fluorinated benzofuranyl-pyrimidine derivatives containing a sulfoximine group” (Bayer Pharma Aktiengesellschaft, priority 2014, dated 2018).
